{"source": "paper PMC12303380", "about": "(PLOS Pathogens, 2025)", "key": {"HLA-E*0103": {"target": "HLA-E*0103 (Homo sapiens, UniProt P13747)", "type": "binding"}, "CD94/NKG2A [1]": {"test_system": "CD94/NKG2A", "settings": "cited from earlier work"}, "CD94/NKG2C": {"test_system": "CD94/NKG2C", "type": "binding, human"}, "CD94/NKG2A [2]": {"test_system": "CD94/NKG2A", "type": "binding, human"}, "CD56dimNKG2A+ NK cells": {"test_system": "CD56dimNKG2A+ NK cells", "type": "cell-based, human"}, "CD56dimNKG2A- NK cells": {"test_system": "CD56dimNKG2A- NK cells", "type": "cell-based, human"}}, "note": "Where “and” joins values, the source holds several entries; their conditions need not be identical. Identical values can stand only once."}
{"substance": "EADPTGHSY/ NLVPMVATV [MAGE-1/HCMV PP65]", "values": [{"measurement": "HLA-E MFI", "setting": "HLA-E*0103", "result": "8070 and 8138 and 7351"}]}
{"substance": "VMPLSAPTL", "values": [{"measurement": "recognition of HLA-E/peptide complex by CD94/NKG2A on NK cells", "setting": "CD94/NKG2A [1]", "result": "could not be interacted with CD94/NKG2A"}]}
{"substance": "AISPRTLNA [AA9]", "values": [{"measurement": "recognition of HLA-E/peptide complex by NKG2A/CD94 on NK cells", "setting": "CD94/NKG2A [1]", "result": "unable to be recognized by NKG2A/CD94"}]}
{"substance": "LQPRTFLL", "values": [{"measurement": "recognition of HLA-E/peptide complex by CD94/NKG2A on NK cells", "setting": "CD94/NKG2A [1]", "result": "could recognize and interact"}]}
{"substance": "VMAPRTLIL [HLA-Cw*03 leading seq]", "values": [{"measurement": "CD94/NKG2C+HLA-E+", "setting": "CD94/NKG2C", "result": "1.12% and 2.94% and 8.23%"}, {"measurement": "FI", "setting": "HLA-E*0103", "result": "2.38 and 2.67 and 2.55"}, {"measurement": "FI (fluorescent index of HLA-E expression)", "setting": "HLA-E*0103", "result": 2.55}, {"measurement": "HLA-E MFI", "setting": "HLA-E*0103", "result": "26721 and 22777 and 24852"}, {"measurement": "CD94/NKG2A+HLA-E+", "setting": "CD94/NKG2A [2]", "result": "46.76% and 47.67% and 24.83%"}, {"measurement": "frequency of CD94/NKG2A+HLA-E+ cells", "setting": "CD94/NKG2A [2]", "result": 47.67, "unit": "%"}]}
{"substance": "NLVPMVATV [PP65]", "values": [{"measurement": "CD107a+CD56dimCD16+NKG2A+NKG2C-CD57-NK cells", "setting": "CD56dimNKG2A+ NK cells", "result": "4.88 and 4.5 and 3.34"}, {"measurement": "Perforin+CD56dimCD16+NKG2A-NKG2C-CD57-NK cells", "setting": "CD56dimNKG2A- NK cells", "result": "97.2 and 72.64 and 80.98 and 81.41"}]}
{"substance": "EADPTGHSY [MAGE-1]", "values": [{"measurement": "CD94/NKG2C+HLA-E+", "setting": "CD94/NKG2C", "result": "0.54% and 1.07% and 0.11%"}, {"measurement": "CD94/NKG2A+HLA-E+", "setting": "CD94/NKG2A [2]", "result": "0.02% and 0.28% and 0.56%"}]}
